“Also recorded” adds a separate entry of the source. Residues, ends and D or L forms follow the SMILES beside them. *: point of attachment. Cbz = O=C(OCc1ccccc1)*
What was measured:
SARS-CoV PLpro = details: cited from earlier work
SARS-CoV-2 PLpro [1] = assay: PLpro-dependent ACE2 deubiquitination and ACE2 abundance in cells; format: cell-based
USP2 = USP2 (Homo sapiens, UniProt O75604); assay: In vitro USP2 activity assay; format: biochemical
ACE2 protein = assay: Immunoblot of ACE2 protein abundance in cell lines; format: cell-based, human; details: for reduction of ACE2 protein abundance: Calu-3, HepG2 and H1650 cells, 48 h
cyclin D1 / cell cycle = assay: TMT-based quantitative proteomic analysis and cell cycle analysis; design: species or system human
MERS-CoV pseudotype = format: cell-based
SARS-CoV-2 WT [2] = format: in vivo, K18-hACE2 transgenic mice; details: 50 mg/kg daily
C57BL/6 mice = assay: 2-week tolerability study in male C57BL/6 mice; format: in vivo, mouse
SARS-CoV-2 PLpro [3] = biological target: SARS-CoV-2 PLpro (Severe acute respiratory syndrome coronavirus 2, UniProt P0DTD1); assay: SARS-CoV-2 PLpro enzymatic activity assay; format: biochemical; details: in vitro
[4] = tested on: ACE2-dependent bat sarbecoviruses; format: cell-based
SARS-CoV-2 = format: in vivo, K18-hACE2 transgenic mice
hCoV-OC43 [5] = assay: RT-qPCR of hCoV-OC43 in Huh7 cells; format: cell-based; details: Huh7 cells preinfected MOI 2 for 24 h, ML364 4 or 10 μM for 48 h
hCoV-OC43 [6] = assay: Cytopathic effect; format: cell-based; details: CPE assay, ACE2-independent strain
SARS-CoV-2 WT [7] = assay: TCID50 assay, authentic SARS-CoV-2 WT in pretreated Calu-3 cells; format: cell-based; details: Calu-3 cells pretreated 48 h, MOI 0.01, TCID50 over time
hCoV-NL63 = assay: Cytopathic effect; format: cell-based; details: CPE assay; for inhibition of hCoV-NL63 infection: ACE2-dependent coronavirus
pseudotyped SARS-CoV-2 = format: cell-based; details: for pseudotype entry of SARS-CoV-2 after 48 h pretreatment: ML364 5 μM, UDCA plus ZGG 10 μM, Calu-3, HepG2, H1650
[8] = tested on: SARS-CoV-2 Omicron BA.2 sublineage; design: species or system K18-hACE2 transgenic mice; details: mouse, in vivo
SARS-CoV-2 WT [9] = assay: TCID50 assay, SARS-CoV-2 WT in NHBE cells; format: cell-based; details: preinfected MOI 0.01 for 1 h, 10 μM, 48 h
[10] = 50 mg/kg once a day or 35 mg/kg twice a day, 2 weeks

Sequence of USP2 (O75604 whole entry): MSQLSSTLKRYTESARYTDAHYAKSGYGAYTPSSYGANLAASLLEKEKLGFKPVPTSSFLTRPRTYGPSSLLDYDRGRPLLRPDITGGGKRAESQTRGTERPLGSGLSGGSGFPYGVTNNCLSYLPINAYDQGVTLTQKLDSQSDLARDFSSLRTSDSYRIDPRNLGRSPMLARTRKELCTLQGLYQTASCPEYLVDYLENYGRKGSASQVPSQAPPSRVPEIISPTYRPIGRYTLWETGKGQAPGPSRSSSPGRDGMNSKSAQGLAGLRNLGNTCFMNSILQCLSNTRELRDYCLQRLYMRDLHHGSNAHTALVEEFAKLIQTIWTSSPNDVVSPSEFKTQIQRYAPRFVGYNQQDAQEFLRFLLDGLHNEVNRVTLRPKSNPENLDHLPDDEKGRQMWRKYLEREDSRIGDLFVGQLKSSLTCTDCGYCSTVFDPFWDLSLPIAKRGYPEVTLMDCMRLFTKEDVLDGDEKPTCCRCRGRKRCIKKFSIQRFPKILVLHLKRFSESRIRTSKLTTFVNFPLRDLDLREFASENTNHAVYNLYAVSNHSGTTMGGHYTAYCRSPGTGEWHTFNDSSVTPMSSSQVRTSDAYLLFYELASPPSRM

S=c1nc[nH]c2nc[nH]c12 [6MP]
SARS-CoV PLpro protease activity (SARS-CoV PLpro): inhibit

Nc1nc2[nH]cnc2c(=S)[nH]1 [6TG]
SARS-CoV PLpro protease activity (SARS-CoV PLpro): inhibit

Cc1ccc(N)cc1C(=O)N[C@H](C)c1cccc2ccccc12 [GRL0617]
infection-induced reduction of ACE2 (SARS-CoV-2 PLpro [1]): failed to prevent the infection-induced reduction of ACE2 | PLpro-induced ACE2 deubiquitination (SARS-CoV-2 PLpro [1]; in cells): diminished PLpro-induced ACE2 deubiquitination | activity toward USP2 (USP2; even at 100 μM): no obvious activity

CC(C)C[C@@H](C=O)NC(=O)[C@H](CC(C)C)NC(=O)[C@H](CC(C)C)NC(=O)OCc1ccccc1 [MG132] (Cbz-Leu-Leu-Leu-aldehyde)
ACE2 protein accumulation (ACE2 protein; HepG2 cells with cycloheximide): noticeable ACE2 protein accumulation

Cc1ccc(S(=O)(=O)Nc2cc(C(F)(F)F)ccc2C(=O)Nc2nc(-c3ccccc3)cs2)cc1 [ML364]
cell cycle effect (cyclin D1 / cell cycle): primarily cell cycle arrest | cyclin D1 protein (TMT) (cyclin D1 / cell cycle; TMT-based proteomics): significant (P = 3.3 × 10^−6) decrease | entry of MERS-CoV pseudotype (MERS-CoV pseudotype): did not prevent the entry | cytotoxicity by LDH release (HepG2 and Calu-3 cells): minimal cytotoxicity | ACE2 protein abundance in the lungs (SARS-CoV-2 WT [2]): significantly (P = 0.01) reduced | viral loads in the lungs (SARS-CoV-2 WT [2]; 4 days before 6-day challenge): significant (P = 3.6 × 10^−6) decrease | lung pathology (H&E) (SARS-CoV-2 WT [2]; versus vehicle): reduction in overall lung pathology | clinical signs (C57BL/6 mice; [10]): healthy without any clinical signs | plasma angiotensin-(1-7) concentration (C57BL/6 mice; [10]): did not lead to any noticeable reduction | ACE2 protein abundance in mouse tissues (C57BL/6 mice; pancreas, small intestine and lung of C57BL/6 mice): reduced abundance of ACE2 protein | inhibition of SARS-CoV-2 PLpro (SARS-CoV-2 PLpro [3]): inhibitory effects | pseudotype entry of ACE2-dependent bat sarbecoviruses [4]: promising activity | viral titers and SARS-CoV-2 E gene in lungs and small intestines (SARS-CoV-2; administration 6 hours after infection): decrease in viral titers | lung pathology (SARS-CoV-2; administration 6 hours after infection, versus vehicle): improved lung pathology | activity against hCoV-OC43 (hCoV-OC43 [5]): did not observe any activity | inhibition of hCoV-OC43 infection (hCoV-OC43 [6]): limited or no activity | time of peak plasma concentration (single intraperitoneal dose, male C57BL/6 mice): 30 min | viral replication of SARS-CoV-2 WT (SARS-CoV-2 WT [7]): obvious reduction | inhibition of USP2 activity (USP2): inhibited USP2 activity | reduction of ACE2 protein abundance (ACE2 protein): reductions in ACE2 protein in all three cell lines | ACE2 protein abundance decrease (ACE2 protein; HepG2, 10 μM, within 12 hours of treatment): 50% | inhibition of hCoV-NL63 infection (hCoV-NL63): effective | IC50 (hCoV-NL63; read-out: IC50 against hCoV-NL63): ~0.18 µM | SARS-CoV-2 pseudovirus entry into cells (pseudotyped SARS-CoV-2; HepG2, ML364 5 μM): obvious reduction | pseudotype entry of SARS-CoV-2 after 48 h pretreatment (pseudotyped SARS-CoV-2): prevented the pseudotype entry

Cc1ccc(S(=O)(=O)Nc2ccc(C(F)(F)F)cc2C(=O)Nc2nc(-c3ccc(Br)cc3)cs2)cc1 [MS102]
cytotoxicity by LDH release (HepG2 and Calu-3 cells): minimal cytotoxicity | therapeutic efficacy (TCID50, lung pathology) compared with ML364 (SARS-CoV-2; mouse, in vivo): enhanced efficacy compared with ML364 | inhibition of hCoV-OC43 infection (hCoV-OC43 [6]): limited or no activity | peak plasma concentration relative to ML364 (C57BL/6 mice): approximately threefold | plasma concentration 24 hours after administration relative to ML364 (C57BL/6 mice): approximately 2500 times | oral bioavailability (male C57BL/6 mice, p.o. 50 mg/kg, i.v. 5 mg/kg): ~100% | survival extension versus vehicle-treated control [8]: 3 days | inhibition of USP2 activity (USP2): slightly enhanced activity | blocking infection of NHBE cells compared with ML364 (SARS-CoV-2 WT [9]): improved efficacy | inhibition of hCoV-NL63 infection (hCoV-NL63): effective | entry of ACE2-dependent pseudotypes compared with ML364 (pseudotyped SARS-CoV-2; HepG2, 5 μM, 24 h pretreatment): enhanced activity

CC(O)c1cc(C(=O)N[C@@H](C)Cn2ccc(-c3ccc(C#N)c(Cl)c3)n2)[nH]n1 (some centres unmarked) [ODM-201]
reduction of ACE2 protein abundance (ACE2 protein): mild efficacy

C[C@H](CCC(=O)O)[C@H]1CC[C@H]2[C@@H]3[C@@H](O)C[C@@H]4C[C@H](O)CC[C@]4(C)[C@H]3CC[C@]12C [UDCA, ursodeoxycholic acid]
inhibition of hCoV-OC43 infection (hCoV-OC43 [6]): no inhibitory activity | reduction of ACE2 protein abundance (ACE2 protein): only mildly reduced ACE2 protein | inhibition of hCoV-NL63 infection (hCoV-NL63): no inhibitory activity | pseudotype entry of SARS-CoV-2 after 48 h pretreatment (pseudotyped SARS-CoV-2): only showed mild effects; also recorded: mild effect

C/C=C1\C(=O)C[C@H]2[C@@H]3CCC4=CC(=O)CC[C@]4(C)[C@H]3CC[C@]12C [ZGG, z-guggulsterone]
pseudotype entry of SARS-CoV-2 after 48 h pretreatment (pseudotyped SARS-CoV-2): only showed mild effects

CCC(CC)COC(=O)[C@H](C)N[P@](=O)(OC[C@H]1O[C@@](C#N)(c2ccc3c(N)ncnn23)[C@H](O)[C@@H]1O)Oc1ccccc1 [remdesivir]
inhibition of hCoV-OC43 infection (hCoV-OC43 [6]): active | inhibition of hCoV-NL63 infection (hCoV-NL63): active
